For two compounds, Ki results are on record in BindingDB's records for doi:10.1002/cbic.201100007 (Yale University, 2011).

The target of the experiment is T1, dCTP pyrophosphatase 1 (Homo sapiens, UniProt Q9H773).
T1 sequence (Q9H773 whole entry): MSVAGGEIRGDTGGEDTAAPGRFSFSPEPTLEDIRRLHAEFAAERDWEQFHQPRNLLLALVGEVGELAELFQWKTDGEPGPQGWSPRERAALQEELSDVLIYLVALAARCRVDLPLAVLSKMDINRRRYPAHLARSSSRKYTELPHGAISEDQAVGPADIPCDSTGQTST
Briefly: Enzyme Assay. The following applies: pH 7.4; 25 °C. How it is done:
Kinetic enzyme assays were performed in a 384-well, white plates (Nunc) on a Wallac Victor 2 plate reader using human DCTPP1 and triptolide and analogues.

As to `CC(C)[C@]12O[C@H]1[C@@H]1O[C@@]13[C@@]1(C)CCC4=C(COC4=O)[C@]1(O)C[C@@H]1O[C@@]13C2=O` [5-Hydroxytriptonide, 6], the Ki (in general, a dissociation constant, usually derived from enzyme kinetics or from competition with a known ligand) came to 356 µM.

The compound `CC(C)[C@]1(O)[C@H](O)[C@@H]2O[C@]23[C@]2(O[C@H]2CC2C4=C(CC[C@@]23C)C(=O)OC4)[C@@H]1O` (some centres not stated) [Triptriolide, 5] came in with a Ki of 85 µM.
